Three molecules from patent EP0714404B1, “ANTI-INFLAMMATORY PEPTIDES” (CURATIVE TECHNOLOGIES, INC., priority 1993, dated 1995) can be followed below.

Read-outs that look alike come from different tables or passages of the source. Residues, ends and D or L forms follow the SMILES beside them.

Holding throughout (assay type): in vivo, mice
In assay [1] the test system is Arachidonic Acid Induced Inflammation. Description: mouse ear model, arachidonic acid (AA) induced inflammation, ear thickness. The procedure:
(§1) The anti-inflammatory properties of CT-112 (SEQ. ID NO: 1) were assessed using a standardized assay for anti-inflammatory activity, i.e., the mouse ear model in which arachidonic acid (AA) is used to induce an inflammatory reaction (Young et al., 1984, J. Invest. Dermatol. 82:367-371; Doherty, et al., 1988, J. Invest. Dermatol. 91:298-302).
(§2) Female mice (C57BL/6UAF, Charles River Breeding Laboratories, approximately 15-18 g) were obtained and acclimated for 2 weeks prior to use. The animals were approximately 14 weeks old at the start of the study.
(§3) To prepare minipumps for implantation, CT-112 (SEQ. ID NO: 1) was dissolved in PBS. The material was loaded into Alzet minipumps set to deliver 0.05 (5 animals), 0.1 (10 animals), 1 (10 animals), or 2.5 (5 animals) mg of CT-112 (SEQ. ID NO: 1) per animal per day. Minipumps for implantation into control animals contained only PBS. As a positive control, one set of 10 mice received 100 mg/kg of phenidone, a potent 5-lipoxygenase inhibitor which acts as an anti-inflammatory agent, 15 min prior to challenge with AA.
(§4) For subcutaneous implantation of minipumps, animals were anesthetized with Ketamine/Xylazine. The Ketamine (Aveco Lot #440140) was injected at 80 mg/kg and the Xylazine (Rugby Laboratories Lot #26040-B) at 16 mg/kg and the Alzet pumps were implanted subcutaneously in the dorsothoracic area. Animals were allowed to recover and then housed and given food and water ad libitum for 5 days.
(§5) On the sixth day following pump implantation, 0.01 ml of AA was applied to the inner and outer surfaces of the right ear by means of an automatic microliter pipette. One hr following AA application, the mice were sacrificed and ear thickness was measured with a Mitutoyo No. 7300 Gauge Caliper. The left ears were also measured as an internal control.
(§6) Mice were implanted with Alzet mini-pumps set to deliver 60 mg/kg/day for either 7, 3, or 1 days. A separate group of 5 mice received 3 intraperitoneal injections of CT-112 (60 mg/kg/injection) at 24, 1 and 0.25 hr prior to AA challenge. CT-112 (SEQ. ID NO: 1) was prepared for injection by dissolving the compound in Dulbecco's PBS to give a final CT-112 (SEQ. ID NO: 1) concentration of 5 mg/ml. The control mice were implanted with Alzet minipumps that delivered PBS for 7 days. The AA challenge was the same as described supra in Example 7.
(§7) Administration of CT-112 (SEQ. ID NO: 1) (60 mg/kg/injection) via multiple intraperitoneal injections was performed at the following times prior to AA challenge: • a) 6, 3, 1 and 0.25 hr; • b) 3, 1 and 0.25 hr; or • c) 1 and 0.25 hr.
(§8) In addition, the effect of a single administration of CT-112 (SEQ. ID NO: 1) (60 mg/kg) by intraperitoneal injection was performed at either 1 or 3 hr prior to AA challenge. Control mice had Alzet minipumps implanted to deliver PBS for 7 days prior to AA challenge. The AA challenge was the same as described supra in Example 7. The results of the multiple dosing regimens and the 1 hr and 3 hr single dosing regimens were compared to the anti-inflammatory activity of CT-112 (SEQ. ID NO: 1) delivered via Alzet minipump set to deliver 60 mg/kg/day for 7 days using 5 animals per treatment.
In a separate experiment, the effect of multiple intraperitoneal injections of CT-112 (SEQ. ID NO: 1) at either 6, 3, 1 and 0.25 hr, or 16, 3, 1 and 0.25 hr prior to AA challenge was assessed. […]

The test system of assay [2] is Arachidonic Acid Induced Myeloperoxidase Activity in Mouse Ear. Briefly: myeloperoxidase activity in AA-treated mouse ear tissue (marker for PMNs). Further details: dose or concentration left out as unconfirmed. Conditions: Phenidone 100. The procedure: Myeloperoxidase activity in ear tissue was measured as a marker for the presence or absence of polymorphonuclear leukocytes (PMNs) (Barone et al., 1991, J. Neurosci. Res. 29:336-345). After measurement of ear thickness, ears were dissected from the mice and homogenized in 50mM Tris-HCL, pH 7.4 at 4°C to give a 10% (w/v) homogenate. Aliquots of the homogenate were used to determine the amount of myeloperoxidase activity present in the tissue using o-dianisidine (Sigma Chem Co., St. Louis MO) and hydrogen peroxide as substrates and monitoring chromophore generation at 460 nm (Barone et al., 1991, J. Neurosci. Res. 29:336-345).

In assay [3] the test system is Arachidonic Acid Induced Inflammation. The note with it: mouse, in vivo. The procedure:
as §1, §2, §3, §4, §5, §6, §7, §8
In a separate experiment, the effect of multiple intraperitoneal injections of CT-112 (SEQ. ID NO: 1) at either 6, 3, 1 and 0.25 hr, or 16, 3, 1 and 0.25 hr prior to AA challenge was assessed. The results of both multi-dosing regimens were compared to both phenidone (100 mg/kg administered 15 min prior to AA challenge) and CT-112 (SEQ. ID NO: 1) administered via Alzet mini-pump (60 mg/kg/day for 7 days). For this latter study, the number of animals receiving the single injection of CT-112 (SEQ. ID NO: 1) was increased from 5 to 10.
Administration to mice of CT-112 (SEQ. ID NO: 1) (60 mg/kg/injection) via multiple subcutaneous injections prior to AA challenge was performed at: • a) 6, 3, 1 and 0.25 hr; • b) 3, 1 and 0.25 hr; or • c) 1 and 0.25 hr. […]

Assay [4] concerns Delayed Type Hypersensitivity. Description: mouse model of delayed-type hypersensitivity induced by DNCB. Conditions: Prednisone ip 25 mg/kg, 2 hr prior to challenge. The procedure: CT-112 (SEQ. ID NO: 1) was tested for its ability to modulate the immune response in a mouse model of delayed hypersensitivity (Filipp et al., 1984, Allergy, 39: 499-507; Diezel et al., 1989 J. Invest. Dermatol. 93:322-326). The mice used in this study were 8-wk old hairless females (Jackson Laboratories). The mice were sensitized to a contact allergen (1-chloro-2,4-dinitrobenzene, DNCB) by painting the dorsothoracic region twice daily for 5 consecutive days with 50 µl of 0.5% DNCB in 75% acetone:25% vegetable oil. The animals were allowed to rest for 24 hr prior to challenge with DNCB. On the sixth day after initiation of the sensitization treatments, the animals were challenged with 50 µl of DNCB solution applied to the left ear. After 24 hrs, the ear thickness was determined and compared to the unchallenged ear.
The treatment groups were as follows: • a) PBS control; • b) Prednisone (intraperitoneal injection of 25 mg/kg, 2 hr prior to challenge); • c) 7-day pump (60 mg CT-112/kg/24 hr); • d) CT-112 (intraperitoneal injections of 60 mg/kg/injection at 3, 1, and 0.25 hr prior to challenge and 3, 6 and 21 hr post-challenge); • e) DMSO control (topical application of 50 µl at 3, 1 and 0.25 hr prior to challenge; and • f) CT-112 in DMSO (20 mg/ml, topical application of 50 µl at 3, 1, and 0.25 hr prior to challenge and 3, 6 and 21 hr post-challenge).

The mark [5] stands for this setting: Table V, Phenidone 100 mg/kg 15 min prior to AA.

Consider `O=C1CCN(c2ccccc2)N1` [Phenidone], for which the “Ear Thickness” value in assay [1] (Phenidone 100mg/kg, 15 min prior to AA, 1 hr after AA) is listed as 0.01176 ± 0.0008 (10) in. In addition, in assay [1] (Table III, Phenidone 100 mg/kg), the “% Inhibition of Inflammation” value came to 88% and the “Thickness Difference (Left-Right)” value amounted to 0.00073 ± 0.00153 in. Further, in assay [1] (setting [5]), the “% Inhibition of Inflammation” value was 84.2% and the “Thickness Difference (Left-Right)” value is 0.00102 ± 0.00038(5) in. In addition, in assay [2], the “Myeloperoxidase Activity” value is recorded as 14.5 ± 8.6 µmole of chromophore formed/min.
For `CC(C)[C@H](NC(=O)[C@H](CCC(N)=O)NC(=O)[C@H](CO)NC(=O)[C@@H](NC(=O)[C@@H](N)[C@@H](C)O)[C@@H](C)O)C(=O)O` [CT-114, Thr-Thr-Ser-Gln-Val] (H-TTSQV-OH), the “% Inhibition of Inflammation” value is 59.3% in assay [3] (6 mg/kg/day) and 62.4% in assay [3] (60 mg/kg/day).
As to `C[C@]12C=CC(=O)C=C1CC[C@@H]1[C@@H]2C(=O)C[C@@]2(C)[C@H]1CC[C@]2(O)C(=O)CO` [Prednisone], the “% Inhibition of Inflammation” value in assay [4] is given as 96.7%. The “Thickness Difference (Left-Right)” value in assay [4] (24 hrs after DNCB) is 0.00014 ± 0.000446 in.
